These results are taken from patent US20120172361A1, “TRIAZINE DERIVATIVES AND THEIR THERAPEUTICAL APPLICATIONS” (CALIFORNIA CAPITAL EQUITY, LLC, priority 2009, published 2012).

Where only a bound is given, the exact number is not on record here.

The experiment deals with T1, Aurora-A(h) (Homo sapiens, UniProt O14965).
T1 construct: purchased Millipore (KinaseProfiler service); also Reaction Biology Corp. (Kinase Hotspot)
T1 sequence (O14965 1-403): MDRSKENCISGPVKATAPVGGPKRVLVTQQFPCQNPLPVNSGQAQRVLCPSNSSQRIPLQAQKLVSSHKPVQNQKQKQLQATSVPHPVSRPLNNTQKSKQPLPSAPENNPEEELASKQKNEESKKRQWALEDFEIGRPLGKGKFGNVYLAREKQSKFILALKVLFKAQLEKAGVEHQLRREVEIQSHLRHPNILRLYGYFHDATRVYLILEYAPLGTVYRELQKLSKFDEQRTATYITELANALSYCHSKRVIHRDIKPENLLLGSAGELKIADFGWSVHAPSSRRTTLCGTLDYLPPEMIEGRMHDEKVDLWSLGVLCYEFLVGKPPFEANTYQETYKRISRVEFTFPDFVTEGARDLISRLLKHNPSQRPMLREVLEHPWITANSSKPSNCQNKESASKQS
In words: Aurora-A kinase assay (KinaseProfiler Service Assay Protocols, Millipore; also Kinase Hotspot, Reaction Biology Corp.). It is filed as biochemical. Conditions: compound concentration 1 μM. On the procedure: This example illustrated Aurora Kinase Assays of selected Compounds from this invention (referred to Daniele Fancelli et al, J. Med. Chem., 2006, 49 (24), pp 7247-7251). The KinaseProfiler™ Service Assay Protocols (Millipore) were used to test the kinase inhibiting activity of novel compounds from this invention. To do this, the buffer composition was as: 20 mM MOPS, 1 mM EDTA, 0.01% Brij-35, 5% Glycerol, 0.1% β-mercaptoethanol, 1 mg/mL BSA. Test compounds were initially dissolved in DMSO at the desired concentration, then serially diluted to the kinase assay buffer. In a final reaction volume of 25 μL, Aurora-A(h) (5-10 mU) is incubated with 8 mM MOPS pH 7.0, 0.2 mM EDTA, 200 μM LRRASLG (Kemptide), 10 mM MgAcetate and [γ33P-ATP]. The reaction was initiated by the addition of the MgATP mix. After incubation for 40 minute at room temperature, the reaction was stopped by addition of 5 μL of a 3% phosphoric acid solution. 10 μL of the reaction was then spotted onto a P30 filtermat and washed three times for 5 minutes in 50 mM phosphoric acid and once in methanol prior to drying and scintillation counting. Wells containing substrate but no kinase and wells containing a phosphopeptide control were used to set 0% and 100% phosphorylation value, respectively.
Also Kinase Hotspot SM kinase assay was used to test the compounds for IC50 or % inhibitions (Reaction Biology Corp.). Inhibitor IC50 values were determined by titration of compound at the optimal kinase concentration (Kinase EC50).
For `CCc1nc(Nc2cc(C)[nH]n2)nc(Sc2ccc(C(=O)NC3CC3)cc2)n1` [Example 107], the inhibition (as a rule, the relative decrease from the control value, in per cent) at 1 µM was less than 50%.
Then `CN1CCN(c2nc(Nc3ccc(Br)cn3)nc(Sc3ccc(NC(=O)C4CC4)cc3)n2)CC1` [Example 123], with greater than 50%; and `Cc1cc(Nc2nc(Sc3ccc(C(=O)NC4CC4)cc3)nc(N3CCN(C)CC3)n2)n[nH]1` [Example 106], with greater than 50%.
Under `Cc1cc(Nc2nc(Sc3ccc(C(=O)NC(C)C)cc3)nc(N3CCN(C)CC3)n2)n[nH]1` [Example 115] stands greater than 90%; under `CCCc1cc(Nc2nc(Sc3ccc(NC(=O)C4CC4)cc3)nc(N3CCN(C)CC3)n2)n[nH]1` [Example 57], less than 50%; under `Cc1cnc(Nc2nc(Sc3ccc(NC(=O)C4CC4)cc3)nc(N3CCN(C)CC3)n2)s1` [Example 10], greater than 90%.
Under `Cc1ccc(Nc2nc(Sc3ccc(NC(=O)C4CC4)cc3)nc(N3CCN(C)CC3)n2)nc1` [Example 122] stands greater than 50%; under `CN1CCN(c2nc(Nc3cc(C4CC4)[nH]n3)nc(Sc3ccc(NC(=O)C4CC4)cc3)n2)CC1` [Example 53], greater than 90%.
Take `Cc1ccnc(Nc2nc(Sc3ccc(NC(=O)C4CC4)cc3)nc(N3CCN(C)CC3)n2)n1` [Example 121]: the inhibition at 1 µM is less than 50%.
`Cc1cnc(Nc2nc(Sc3cccc(N)c3)nc(N3CCN(C)CC3)n2)s1` [Example 49] registered an inhibition at 1 µM greater than 50%.
Under `Cc1cnc(Nc2nc(Sc3ccc(NC(=O)c4ccccc4)cc3)nc(N3CCN(C)CC3)n2)s1` [Example 113] stands greater than 90%.
`Cc1cc(Nc2nc(Sc3ccc(C(=O)NCc4ccc(F)cc4)cc3)nc(N3CCN(C)CC3)n2)n[nH]1` [Example 118] had an inhibition at 1 µM greater than 90%.
`Cc1cc(Nc2nc(NCCN(C)C)nc(Sc3ccc(NC(=O)C4CC4)cc3)n2)n[nH]1` [Example 91] registered an inhibition at 1 µM greater than 90%.
Under `Cc1cnc(Nc2nc(NCCN(C)C)nc(Sc3ccc(NC(=O)C4CC4)cc3)n2)s1` [Example 39] stands greater than 90%; under `Cc1cnc(Nc2nc(Sc3ccc(NC(=O)C4CC4)cc3)nc(N3CCN(c4ccncc4)CC3)n2)s1` [Example 20], greater than 90%.
Then `CCC(=O)Nc1ccc(Sc2nc(Nc3ncc(C)s3)nc(N3CCN(C)CC3)n2)cc1` [Example 114], with greater than 90%.
Then `CCC(=O)Nc1ccc(Sc2nc(Nc3cc(C4CC4)[nH]n3)nc(C3CC3)n2)cc1` [Example 81], with greater than 90%; and `CN1CCN(c2nc(Nc3cc(C(C)(C)C)[nH]n3)nc(Sc3ccc(NC(=O)C4CC4)cc3)n2)CC1` [Example 54], with greater than 50%; and `Cc1cn(-c2nc(Sc3ccc(NC(=O)c4ccccc4)cc3)nc(N3CCN(C)CC3)n2)c(=N)s1` [Example 112], with greater than 50%.
On to `CC(C)c1cc(Nc2nc(Sc3ccc(NC(=O)C4CC4)cc3)nc(N3CCN(C)CC3)n2)n[nH]1` [Example 56], for which the inhibition at 1 µM was greater than 50%.
`Cc1cc(Nc2nc(Sc3ccc(NC(=O)C4CC4)cc3)nc(N3CCN(c4ccncc4)CC3)n2)n[nH]1` [Example 12] registered an inhibition at 1 µM greater than 90%.
Regarding `Cc1cc(Nc2nc(Sc3ccc(NC(=O)C4CC4)cc3)nc(N3CCN(C)CC3)n2)no1` [Example 120], the inhibition at 1 µM was less than 50%.
Under `Cc1cc(Nc2nc(Sc3ccc(NC(=O)C4CC4)cc3)nc(N3CCCC3)n2)n[nH]1` [Example 89] stands greater than 90%.
In turn, `Cc1cc(Nc2nc(Sc3ccc(C(=O)Nc4ccccc4)cc3)nc(N3CCN(C)CC3)n2)n[nH]1` [Example 116] yielded an inhibition at 1 µM greater than 90%.
Then `Cc1cn(-c2nc(Sc3ccc(NC(=O)C4CC4)cc3)nc(N3CCN(C)CC3)n2)c(=N)s1` [Example 70], with less than 50%.
Take `CCCCNc1nc(Nc2ncc(C)s2)nc(Sc2ccc(NC(=O)C3CC3)cc2)n1` [Example 41]: the inhibition at 1 µM is less than 50%.
Under `Cc1cc(Nc2nc(Sc3ccc(N)cc3)nc(C3CC3)n2)n[nH]1` [Example 45] stands greater than 50%; under `Cc1cnc(Nc2nc(Sc3ccc(NC(=O)C4CC4)cc3)nc(N3CCOCC3)n2)s1` [Example 21], greater than 90%; under `CC(=O)Nc1ccc(Sc2nc(CC(C)C)nc(-n3cc(C)sc3=N)n2)cc1` [Example 69], less than 50%.
Under `Cc1cnc(Nc2nc(N3CCN(C)CC3)nc(N3CCN(C)CC3)n2)s1` [Example 47] stands less than 50%.
Then `O=C(Nc1ccc(Sc2nc(Nc3ncc[nH]3)nc(-c3ccccc3)n2)cc1)C1CC1` [Example 16], with less than 50%; and `CN1CCN(c2nc(Nc3nc[nH]n3)nc(Sc3ccc(NC(=O)C4CC4)cc3)n2)CC1` [Example 8], with less than 50%; and `Cc1cc(Nc2nc(Sc3ccc(NC(=O)C4CC4)cc3)nc(N3CCN(CCO)CC3)n2)n[nH]1` [Example 96], with greater than 90%.
Molecule `Cc1cc(Nc2nc(NCCCN3CCOCC3)nc(Sc3ccc(NC(=O)C4CC4)cc3)n2)n[nH]1` [Example 90] showed an inhibition at 1 µM greater than 90%.
Under `CCC(=O)Nc1ccc(Sc2nc(CC)nc(Nc3cc(C4CC4)[nH]n3)n2)cc1` [Example 84] stands greater than 90%.
Under `Cc1cc(Nc2nc(Sc3ccc(NC(=O)C4CC4)cc3)nc(N3CCOCC3)n2)n[nH]1` [Example 88] stands greater than 90%; under `CCN(CC)c1nc(Nc2ncc(C)s2)nc(Sc2ccc(NC(=O)C3CC3)cc2)n1` [Example 42], greater than 50%.
Then `CN1CCN(c2nc(Nc3nccs3)nc(Sc3ccc(NC(=O)C4CC4)cc3)n2)CC1` [Example 60], with less than 50%; and `Cc1nc(Nc2nc(Sc3ccc(NC(=O)C4CC4)cc3)nc(N3CCN(C)CC3)n2)sc1C` [Example 61], with less than 50%.
Molecule `CN1CCN(c2nc(Nc3nc4ccccc4[nH]3)nc(Sc3ccc(NC(=O)C4CC4)cc3)n2)CC1` [Example 9] returned an inhibition at 1 µM greater than 50%.
Then `CCC(=O)Nc1ccc(Sc2nc(C3CC3)nc(-n3cc(C)sc3=N)n2)cc1` [Example 110], with greater than 50%; and `Cc1cnc(Nc2nc(Sc3ccc(NC(=O)C(C)C)cc3)nc(N3CCN(C)CC3)n2)s1` [Example 71], with greater than 90%.
Under `Cc1cc(Nc2nc(Sc3ccc(NC(=O)C4CC4)cc3)nc(C3CC3)n2)n[nH]1` [Example 6] stands greater than 90%.
`Cc1cc(Nc2nc(Sc3ccc(NC(=O)C4CC4)cc3)nc(N3CCN(C)CC3)n2)n[nH]1` [Example 2]: the inhibition at 1 µM was greater than 90%.
Under `Cc1cc(Nc2nc(N)nc(Sc3ccc(NC(=O)C4CC4)cc3)n2)n[nH]1` [Example 97] stands greater than 90%; under `CCC(=O)Nc1ccc(Sc2nc(C)nc(Nc3cc(C)[nH]n3)n2)cc1` [Example 86], greater than 90%; under `CCOC(=O)c1cc(Nc2nc(Sc3ccc(NC(=O)C4CC4)cc3)nc(N3CCN(C)CC3)n2)n[nH]1` [Example 30], greater than 90%.
`Cc1cnc(Nc2nc(NCCCN3CCOCC3)nc(Sc3ccc(NC(=O)C4CC4)cc3)n2)s1` [Example 38]: the inhibition at 1 µM is greater than 90%.
For `Cc1cnc(Nc2nc(Sc3ccc(NC(=O)C4CC4)cc3)nc(N3CCCCC3)n2)s1` [Example 44], the inhibition at 1 µM was greater than 50%.
Under `Cc1cc(Nc2nc(Sc3ccc(NC(=O)C4CC4)cc3)nc(N3CCN(C)CC3)n2)on1` [Example 76] stands greater than 50%.
